In one experiment the test system is E. coli BW25113. Format: cell-based. To be noted: E. coli BW25113; CLSI microbroth dilution, CAMHB, 18 h, 37 °C, triplicate. As for the experimental part:
(§1) MICs of compounds were determined following CLSI guidelines using the microbroth dilution method in polypropylene plates. Selected Gram-negative bacterial strains (see Table S2 for strain sources) were taken from glycerol stocks and grown overnight on blood agar. Individual colonies were selected and grown in Tryptic Soy Broth (TSB) to an OD600 of 0.5. Compounds were diluted in Mueller Hinton Broth (MHB) supplemented with Mg^2+ and Ca^2+ at final concentrations of 12 and 20 mg/L, respectively (CAMHB). 50 μL was used for each well, and compounds were assessed in triplicates. Bacterial culture was diluted in CAMHB to 10^6 CFU/mL, yielding 5 × 10^5 CFU/mL upon addition of 50 μL of culture to 50 μL of compound solution. Positive and negative (sterility) controls were present on each plate. Plates were sealed with a semipermeable membrane and incubated for 22 h (A. baumannii) or 18 h (other strains) under shaking at 37 °C.
On the technique in general: Broth dilution looks for growth in wells or tubes with falling amounts of substance.

Another experiment deals with K. pneumoniae ATCC 13883. Format: cell-based. The conditions noted are these: K. pneumoniae ATCC 13883; CLSI microbroth dilution, CAMHB, 18 h, 37 °C, triplicate. As for the experimental part: as §1
A further experiment deals with P. aeruginosa ATCC 10145. Format: cell-based. To be noted: P. aeruginosa ATCC 10145; CLSI microbroth dilution, CAMHB, 18 h, 37 °C, triplicate. As for the experimental part:
as §1

The next experiment has as its system P. aeruginosa ATCC 27853. Format: cell-based. The conditions noted are these: P. aeruginosa ATCC 27853; CLSI microbroth dilution, CAMHB, 18 h, 37 °C, triplicate. As for the experimental part:
as §1

In a further experiment the test system is E. coli mcr-1. Format: cell-based. To be noted: CLSI microbroth dilution, CAMHB, 18 h, 37 °C, triplicate. As for the experimental part:
as §1

The test system of another experiment is E. coli JW3594 (ΔwaaD). The class given is cell-based. To be noted: truncated LPS, CLSI microbroth dilution, CAMHB, 18 h, 37 °C, triplicate. Here is the method:
as §1

Another experiment has as its system P. aeruginosa NRZ03961. Format: cell-based. To be noted: P. aeruginosa NRZ03961; CLSI microbroth dilution, CAMHB, 18 h, 37 °C, triplicate. Here is the method: as §1
For the next experiment, the system named is A. baumannii ATCC 19606. Format: cell-based. The conditions noted are these: A. baumannii ATCC 19606; CLSI microbroth dilution, CAMHB, 22 h, 37 °C, triplicate. As for the experimental part: as §1
The subject of the next experiment is E. coli ATCC 25922. The class given is cell-based. To be noted: E. coli ATCC 25922; CLSI microbroth dilution, CAMHB, 18 h, 37 °C, triplicate. Here is the method: as §1
The next experiment relates to E. coli JW3596 (ΔwaaC). Format: cell-based. The conditions noted are these: truncated LPS, CLSI microbroth dilution, CAMHB, 18 h, 37 °C, triplicate. Here is the method:
as §1

A further experiment deals with P. aeruginosa 2018-007. The class given is cell-based. The conditions noted are these: P. aeruginosa 2018-007; CLSI microbroth dilution, CAMHB, 18 h, 37 °C, triplicate. As for the experimental part:
as §1

The test system of experiment [1] is E. coli ATCC 25922 (smooth LPS). The experiment can be described thus: NPN uptake assay (outer membrane disruption). Format: cell-based. The conditions noted are these: NPN fluorescence after 1 h at RT, 5 mM HEPES pH 7.2 + 20 mM glucose, triplicates, result in words. Here is the method:
(§2) Bacteria were taken from glycerol stocks and grown in TSB overnight. Cultures were diluted either 50 or 100 times in Lysogeny Broth (LB) and grown at 37 °C to an OD600 of 0.5. Test compounds were prepared in HEPES buffer (5 mM, pH 7.2 + 20 mM glucose) and serially diluted (25 μL per well) on 1/2 the area of black 96-well plates with a transparent bottom. N-Phenyl-1-naphthylamine (NPN) was dissolved in acetone (0.5 mM) and diluted to 40 μM in HEPES buffer (5 mM, pH 7.2 + 20 mM glucose). 25 μL of the NPN solution was added to each well. The bacterial suspension was spin down (1000g, 10 min), and the remaining cell pellet was resuspended in half the original volume of HEPES buffer (5 mM, pH 7.2 + 20 mM glucose). 50 μL of bacterial suspension was added to each well. NPN fluorescence was measured after 1 h of incubation at RT with λex 355 ± 20 nm and λem 420 ± 20 nm. The measured fluorescence signal was corrected for NPN fluorescence in the absence of compounds (bacteria in buffer + NPN) and presented as relative fluorescence units (RFUs).

The test system of experiment [2] is E. coli BW25113 (rough LPS). The experiment can be described thus: NPN uptake assay (outer membrane disruption). The class given is cell-based. To be noted: NPN fluorescence after 1 h at RT, 5 mM HEPES pH 7.2 + 20 mM glucose, triplicates, result in words. As for the experimental part: as §2
Experiment [3] has as its system polymyxin-sensitive E. coli ATCC 25922. The experiment can be described thus: microbe, parasite or virus in culture. Format: cell-based. As for the experimental part: (§3) Selected Gram-negative bacterial strains were taken from glycerol stocks and grown overnight on blood agar. A single colony was inoculated in TSB broth at 37 °C until an optical density of 0.5 at 600 nm (OD600) was reached. The bacterial suspension was diluted in freshly prepared CAMHB to 10^6 CFU/mL. Compounds were diluted along the plate, using 25 μL of CAMHB for each dilution. Antibiotic concentrations were prepared separately in a multiwell reservoir, including a control without antibiotic. Of each antibiotic stock, 25 μL was added to three columns to obtain triplicates for every condition. To each 50 μL containing well was then added 50 μL of the 10^6 CFU/mL bacterial suspension, and the plates were sealed with breathable seals. After incubation for 18 h at 37 °C while shaking, the seals were removed and the density of the bacterial suspensions was measured at 600 nm (OD600) using a Tecan Spark plate reader. The OD600 values were transformed to a 2D gradient with the negative control as the minimum and the positive control as the maximum. The FICI was calculated using the following equation: [drawing 1] with MSCant and MSCcomp indicating the optimal synergistic concentration of antibiotic and compound and MICant and MICcomp, the corresponding MICs of the individual compounds. An FICI ≤ 0.5 indicates synergy.[48]

Experiment [4] relates to LPS from E. coli (O55:B5). The experiment can be described thus: Isothermal titration calorimetry (ITC), LPS binding. To be noted: compound (1 mM) into LPS (20 µM), 20 mM HEPES pH 7, 37 °C, mean and SD of three experiments; for ΔG, fitted parameter for single site binding / ΔH, fitted parameter for single site binding / Kd: one-site model; for Kd: read-out: KD, fitted parameter for single site binding. Here is the method:
Stock solutions of LPS (10 mg/mL, 0.5 mM) were prepared in 20 mM HEPES at pH 7 by suspension, sonication, and temperature cycling between 4 and 60 °C and stored overnight prior to use. LPS from E. coli (O55:B5) was used. Lipopeptide solutions (1 mM in 20 mM HEPES, pH 7) were titrated into a suspension of LPS (0.020 mM) in the same buffer. Control titrations included the titration of peptide into buffer and buffer into the LPS suspension to determine the corresponding heat of dilution. All binding experiments were performed using a MicroCal PEAQ-ITC Automated microcalorimeter (Malvern Panalytical Ltd., Malvern, UK). The samples were equilibrated to 37 °C prior to measurement. The titrations were conducted at 37 °C under constant stirring at 750 rpm. Each experiment consisted of an initial injection of 0.3 μL followed by 25 separate injections of 1.5 μL into the sample cell of 200 μL. The time between each injection was 180 s, and the measurements were performed with the reference power set at 5 μcal s^–1 and the feedback mode set at “low”. For all calculations performed, an estimated molecular weight of 20 kDa for LPS was applied. The calorimetric data thus obtained were analyzed using MicroCal PEAQ-ITC Analysis Software Version 1.20 (Malvern Panalytical Ltd., Malvern, UK), where the integrated heat signal is corrected for the heat of dilution of the titrant.
(In general: Isothermal titration calorimetry measures the heat released or taken up as one component is titrated into another.)

Experiment [5] relates to polymyxin-resistant (mcr-1 positive) E. coli. The experiment can be described thus: microbe, parasite or virus in culture. Format: cell-based. Here is the method:
as §3

Positions of bridges follow the written chain, without caps; N, C: chain ends. Non-standard residues stand in square brackets, D forms with d. Residues, ends and D or L forms follow the SMILES beside them. dDab = NCC[C@@H](N)C(=O)O; Dab = NCC[C@H](N)C(=O)O Some results are limits rather than exact numbers.

For the compound “Polymyxin B sulfate [PmxB (commercial), reference compound]”, the MIC against E. coli BW25113 is 1 µg/mL; against K. pneumoniae ATCC 13883, 0.25 µg/mL; against P. aeruginosa ATCC 10145, 1 µg/mL; against P. aeruginosa ATCC 27853, 1 µg/mL; against E. coli mcr-1, 4 µg/mL; with E. coli JW3594 (ΔwaaD) it was 0.06 µg/mL. In addition, the MIC was determined as 1 µg/mL in the experiment on P. aeruginosa NRZ03961; 0.25 µg/mL in the experiment on A. baumannii ATCC 19606; 1 µg/mL against E. coli ATCC 25922; 0.06 µg/mL in the experiment on E. coli JW3596 (ΔwaaC); 2 µg/mL against P. aeruginosa 2018-007.

Take `CC(C)C[C@H]1NC(=O)[C@H](Cc2ccccc2)NC(=O)[C@@H](CCN)NC(=O)[C@H](NC(=O)[C@@H](CCN)NC(=O)[C@H](N)[C@H](C)O)CCNC(=O)[C@@H]([C@H](C)O)NC(=O)[C@@H](CCN)NC(=O)[C@@H](CCN)NC1=O` [ent-PMBN] (H-[dT][dDab][dDab][dDab]F[dL][dDab][dDab][dT]; lactam 3-C): in experiment [1], the “OM disruption (NPN uptake)” value is “weak OM disruption”. Moreover, the “OM disruption (NPN uptake)” value in experiment [2] is recorded as “higher degree of OM perturbation”. The MIC alone in experiment [3] (ATCC 25922, 18 h) is recorded as not below 256 µg/mL. Moreover, in [4], the “ΔΔH, maximum enthalpy observed after subtraction of dilution control” value is recorded as -4.91 ± 0.03 kcal/mol; the “ΔG, fitted parameter for single site binding” value was -7.69 ± 0.06 kcal/mol; the “ΔH, fitted parameter for single site binding” value is -5.2 ± 0.03 kcal/mol; the Kd came to 3.9 ± 0.4 µM.

As for `CO[C@H]1/C=C/O[C@@]2(C)Oc3c(C)c(O)c4c(O)c(c(/C=N/N5CCN(C)CC5)c(O)c4c3C2=O)NC(=O)/C(C)=C\C=C\[C@H](C)[C@H](O)[C@@H](C)[C@@H](O)[C@@H](C)[C@H](OC(C)=O)[C@@H]1C` [Rifampicin, rifampicin], the “MIC in combination (rifampicin)” value is on record as 1 µg/mL in experiment [5] (E. coli mcr-1, rifampicin in combination with PMBN (4 µg/mL)); 0.3 µg/mL in experiment [5] (E. coli mcr-1, rifampicin in combination with PmxB4 (1 µg/mL)); 2 µg/mL in experiment [5] (E. coli mcr-1, rifampicin in combination with ent-PMBN (32 µg/mL)); 1 µg/mL in experiment [5] (E. coli mcr-1, rifampicin in combination with ent-PmxB4 (8 µg/mL)); 0.1 µg/mL in [3] (E. coli ATCC 25922, rifampicin in combination with PMBN (2 µg/mL)); 0.5 µg/mL in experiment [3] (E. coli ATCC 25922, rifampicin in combination with PmxB4 (1 µg/mL)). Moreover, the “MIC in combination (rifampicin)” value is 2 µg/mL in experiment [3] (E. coli ATCC 25922, rifampicin in combination with ent-PMBN (32 µg/mL)) and 0.1 µg/mL in [3] (E. coli ATCC 25922, rifampicin in combination with ent-PmxB4 (8 µg/mL)). Further, the MIC was found to be 8 µg/mL in experiment [5] (Escherichia coli, read-out: MIC alone) and 8 µg/mL in experiment [3] (Escherichia coli, ATCC25922, E. coli ATCC 25922, checkerboard, substance alone). In addition, in experiment [3] (E. coli ATCC 25922, checkerboard, substance alone), the MIC alone turned out to be 8 µg/mL.

On to `CC(C)C[C@@H]1NC(=O)[C@@H](Cc2ccccc2)NC(=O)[C@H](CCN)NC(=O)[C@@H](NC(=O)[C@H](CCN)NC(=O)[C@@H](N)[C@@H](C)O)CCNC(=O)[C@H]([C@@H](C)O)NC(=O)[C@H](CCN)NC(=O)[C@H](CCN)NC1=O` [PMBN, polymyxin B nonapeptide, reference compound] (H-T[Dab][Dab][Dab][dF]L[Dab][Dab]T; lactam 3-C (inferred); N-terminus assumed), for which the “OM disruption (NPN uptake)” value in experiment [1] is reported as “potent OM disruption”. Also, in experiment [2], the “OM disruption (NPN uptake)” value is “potent OM disruption”. Moreover, in experiment [5] (E. coli mcr-1, combination with rifampicin, checkerboard, CAMHB, 18 h, 37 °C, OD600, FICI ≤ 0.5 indicates synergy), the FICI is not above 0.14. In experiment [3] (ATCC 25922, 18 h), the MIC alone is not below 256 µg/mL. In [4], the “ΔΔH, maximum enthalpy observed after subtraction of dilution control” value is reported as -7.20 ± 0.19 kcal/mol; the “ΔG, fitted parameter for single site binding” value is -7.24 ± 0.03 kcal/mol; the “ΔH, fitted parameter for single site binding” value is given as -8.4 ± 0.25 kcal/mol; the Kd came to 8 ± 0.4 µM.

For orientation: Kd means the constant that tells how readily two partners part at equilibrium.

These data come from PMC9745799, “Polymyxin Stereochemistry and Its Role in Antibacterial Activity and Outer Membrane Disruption” (ACS Infectious Diseases, 2022).
